Data taken from patent US4636513A, “Isoxazole derivatives and medicaments containing these compounds” (Hoechst Aktiengesellschaft, priority 1984, dated 1987).
Values after ≈ are worked out from the molar mass of the structure shown. Where two headings read alike, the source gives them in different places.

Key:
mice = assay: Acetic acid extension test on mice (analgesic action); conditions: Mus musculus, po; for responders at 158 mg/kg: read-out: Animals which showed analgesic effect in % after an oral dose of 158 mg/kg; for ED50: read-out: Analgesic action ED50, acetic acid extension test (Mouse)
Description: (§1) (a) Acetic acid extension test on mice in accordance with the method of R. Koster et al., Fed. Prod.
(§2) Female mice of a N.M.R.I. strain with a body weight (BW) of between 21 and 28 g were used as the experimental animals. Groups of in each case 12 animals received 0.1 ml/10 g BW of a 0.6% strength acetic acid solution, injected intraperitoneally. The test substances were administered 30 minutes beforehand. Immediately after the acetic acid injection, the animals were placed individually and the typical extension movements occurring within 15 minutes were counted, these consisting of brief flexing of the abdominal muscles with withdrawal of the sides and subsequent extension of the rear of the body and of at least one rear extremity.
(§3) The test substances were administered orally in a volume of 10 ml/kg BW in 1% strength aqueous carboxymethylcellulose (CMC) suspension.

[1] = Gastrointestinal ulcerogenicity; assay type: in vivo, rat (male Sprague-Dawley); conditions: in vivo, po, rat
Description: (§4) In this test on male Sprague-Dawley rats with a body weight of between 200 and 300 g, an increased sensitivity of the gastric mucosa toward the ulcerogenic action of non-steroid antiflammatories was induced by hunger stress (withdrawal of food for a total of 72 hours).
(§5) 48 hours before administration of the test substances, the food was withdrawn from the animals until the end of the experiment, the animals having free access to drinking water.
(§6) 24 hours after oral administration of the product, the animals were sacrificed and the stomachs were removed, cut along the lesser curvature, cleaned under running water and inspected for lesions in the mucous membrane. All the macroscopically visible lesions of the mucosa in the glandular atomach were regarded as ulcers. The proportion of animals with ulcers per dose was determined.
(§7) The test substances were administered as a solution in CMC suspension in a volume of 1 ml/100 g of body weight. The UD50 (dose at which 50% of the animals had ulcers) was determined with the aid of Probit analysis and the confidence range was determined by the method of Fieller.

in vivo = assay: in vivo; design: species or system rat (male and female Wistar); conditions: po, rat, administered orally, read-out: Toxicity LD50
Description: The animals were used in the experiment after being fasted for about 18 hours and only received food again five hours after administration of the product. After a three-week observation period, they were sacrificed with chloroform and autopsied. The organs were assessed macroscopically. The test compounds were dissolved in 1% strength CMC suspension and administered to the rats through a stomach tube in a volume of 5 ml/kg BW.

[2] = tested on: prostaglandin synthetases; conditions: cited from earlier work
rats [3] = assay: Modified Randall-Selitto hyperalgesia test on rats (analgesic action); conditions: Rattus norvegicus, po, 2 h, read-out: Analgesic action ED50, Randall-Selitto test (Rat)
Description: (§8) (b) Modified Randall-Selitto hyperalgesia test on rats in accordance with the method of Atkinson et al., J. Pharm. Pharmac.
(§9) Male Sprague-Dawley rats with a body weight of 200 to 300 g were used as the experimental animals. The experimental animals were given a subplantar injection of 0.2 ml of brewer's yeast suspension (40% of yeast in 0.9% strength NaCl solution) into the left hind paw under mild ether anaesthesia. After 5 hours, the gait of the animals over a metal grating was evaluated according to the following scale:
(§10) The evaluation was effected by determining the percentage of animals evaluated with stage 1 or 0.5, two animals given 0.5 being regarded as showing an analgesic effect.
(§11) The test substances were administered orally, to animals which had been fasted for 15 hours, in CMC suspension in a volume of 10 ml/kg BW two hours before the evaluation of the animals. In order to exclude subjective influences, the evaluation was performed by two people independently of one another and without knowledge of the pretreatment of the animals (n=10/dose). The ED50 values were determined with the aid of linear regression in accordance with the method of Fieller and Sidak.

[4] = as above; conditions: rat, in vivo, po
Description: as §8, §9, §10, §11

[5] = Acetic acid extension test on mice (analgesic action); conditions: mouse, in vivo, po
Description: as §1, §2, §3

rats [6] = assay: Antipyretic action, yeast fever test on rats; assay type: in vivo, rat (female Sprague-Dawley); conditions: for Reduction in body temperature at 60 min / Reduction in body temperature at 120 min / Reduction in body temperature at 180 min / Reduction in body temperature at 240 min: rat, orally
Description: The investigations were carried out on female Sprague-Dawley rats with a body weight of 150 g and fed on drinking water ad libitum and a standard diet. […] The body temperature was measured rectally by means of second thermometers at room temperature (24° C.). The number of animals was n=6 per dose. The average reduction in body temperature in comparison with the simultaneous value of the untreated control animals was recorded.

isolated pig ureter = assay: Inhibition of potassium chloride-induced spasms on the isolated pig ureter
Excerpt: In contrast, the compounds of the formula I exert a significant inhibiting action in this experimental design.

[7] = biliary, gastrointestinal and urogenital tract; cited from earlier work
gastric mucosa = assay: Gastrointestinal ulcerogenicity; assay type: in vivo, rat (male Sprague-Dawley); conditions: doses of up to 400 mg/kg, rat, oral
Description: as §4, §5, §6, §7

## O=C(c1cnoc1C(F)(F)F)N1CCCCC1 [Example 8, N-(5-Trifluoromethyl-4-isoxazolylcarbonyl)-piperidine]
mice
  responders at 158 mg/kg: 75%

## CCc1oncc1C(=O)N1CCCCC1 [Example 2, N-(5-Ethyl-4-isoxazolylcarbonyl)-piperidine]
mice
  responders at 158 mg/kg: 83%

## Cc1noc(C)c1C(=O)N1CCCCC1 [3,5-Dimethyl-4-isoxazole-carboxylic acid piperidide, reference compound]
mice
  responders at 158 mg/kg: 25%

## CC(=O)Oc1ccccc1C(=O)O [Acetylsalicylic acid, reference compound]
[1]; administered orally, fasted, 24 h after administration, read-out: Ulcerogenicity UD50
  TD50 at 24 h: 31 mg/kg
In vivo
  LD50 at 504 h: 1500 mg/kg
[2]
  Inhibition of peripheral prostaglandin biosynthesis: inhibitor of peripheral prostaglandin biosynthesis
Rats [3]
  ED50: 182 mg/kg
[4]
  selectivity ratio: 8.2
[5]
  selectivity ratio: 10.9
mice
  ED50: 138 mg/kg
  responders at 158 mg/kg: 48%

## Cc1oncc1C(=O)N1CCC(C)CC1 [Example 4, 4-Methyl-1-(5-methyl-4-isoxazolylcarbonyl)-piperidine]
mice
  responders at 158 mg/kg: 67%

## CCN(CC)C(=O)c1cnoc1C [5-Methyl-4-isoxazolecarboxylic acid N,N--diethylamide, reference compound]
mice
  responders at 158 mg/kg: 25%

## O=C(c1cnoc1)N1CCCCC1 [Example 7, N-(4-Isoxazolylcarbonyl)-piperidine]
mice
  responders at 158 mg/kg: 50%

## Cc1oncc1C(=O)N1CCC(O)CC1 [Example 6, 4-Hydroxy-1-(5-methyl-4-isoxazolylcarbonyl)-piperidine]
mice
  responders at 158 mg/kg: 50%

## CCCc1oncc1C(=O)N1CCCCC1 [Example 9, N-(5-Propyl-4-isoxazolylcarbonyl)-piperidine]
mice
  responders at 158 mg/kg: 67%

## CC(=O)Nc1ccc(O)cc1 [Paracetamol, reference compound]
Rats [6]; 100 mg/kg
  Reduction in body temperature at 60 min: 1.3 °C
  Reduction in body temperature at 120 min: 1.1 °C
  Reduction in body temperature at 180 min: 0.4 °C
  Reduction in body temperature at 240 min: 0 °C
[1]
  TD50 at 24 h: > 400 mg/kg
Isolated pig ureter; potassium chloride
  Inhibiting effect on spasms: no inhibiting effect on spasms
[7]
  Suitability for treating pain of spastic origin: unsuitable for treating pain of spastic origin
Rats [3]
  ED50: 334 mg/kg
mice
  ED50: 155 mg/kg
  responders at 158 mg/kg: 50%

## Cc1oncc1C(=O)N1CCSCC1 [Example 5, N-(5-Methyl-4-isoxazolylcarbonyl)-thiomorpholine]
mice
  responders at 158 mg/kg: 59%

## Cc1oncc1C(=O)N1CCOCC1 [Example 10, N-(5-Methyl-4-isoxazolylcarbonyl)-morpholine]
mice
  responders at 158 mg/kg: 42%

## Cc1oncc1C(=O)N1CCCC1 [Example 3, N-(5-Methyl-4-isoxazolylcarbonyl)-pyrrolidine]
mice
  responders at 158 mg/kg: 83%

## Cc1oncc1C(=O)N1CCCCC1 [Example 1, N-(5-Methyl-4-isoxazolylcarbonyl)-piperidine]
Rats [6]; 50 mg/kg oral versus Paracetamol 100 mg/kg oral
  Reduction in fever in comparison with Paracetamol: both more powerful and clearly lasts longer than that of the comparison product Paracetamol
Rats [6]; 50 mg/kg
  Reduction in body temperature at 60 min: 1.3 °C
  Reduction in body temperature at 120 min: 1.6 °C
  Reduction in body temperature at 180 min: 1.3 °C
  Reduction in body temperature at 240 min: 0.8 °C
Rats [6]; 100 mg/kg
  Reduction in body temperature at 60 min: 2.0 °C
  Reduction in body temperature at 120 min: 2.0 °C
  Reduction in body temperature at 180 min: 1.5 °C
  Reduction in body temperature at 240 min: 1.1 °C
Gastric mucosa
  Lesions of the mucous membrane: no lesions of the mucous membrane were detected
[1]
  TD50 at 24 h: > 400 mg/kg
Isolated pig ureter; Sus scrofa, potassium chloride-induced spasms, read-out: ED50 (inhibition of spasms), concentration
  IC50: 410 µg/mL (≈ 2110 µM)
Rats [3]
  ED50: 85 mg/kg
mice
  ED50: 45 mg/kg
  responders at 158 mg/kg: 83%
